Reference: ChEMBL document CHEMBL5131495, “Discovery of unique thiazolidinone-conjugated coumarins as novel broad spectrum antibacterial agents” (Eur J Med Chem, 2022)
≈ marks a conversion by molar mass, not a printed value.

Legend:
Format in all cases: functional
Klebsiella pneumoniae = experiment: Antibacterial activity against Klebsiella pneumoniae assessed as inhibition of bacterial growth
Staphylococcus aureus [1] = experiment: Antibacterial activity against Staphylococcus aureus ATCC 29213 assessed as inhibition of bacterial growth
Escherichia coli [2] = experiment: Antibacterial activity against Escherichia coli ATCC 25922 assessed as inhibition of bacterial growth
Pseudomonas aeruginosa [3] = experiment: Antibacterial activity against Pseudomonas aeruginosa ATCC 27853 assessed as inhibition of bacterial growth
Staphylococcus aureus [4] = experiment: Antibacterial activity against Staphylococcus aureus ATCC 25923 assessed as inhibition of bacterial growth
Staphylococcus aureus [5] = experiment: Antibacterial activity against Staphylococcus aureus assessed as inhibition of bacterial growth
Enterococcus faecalis = experiment: Antibacterial activity against Enterococcus faecalis assessed as inhibition of bacterial growth
Pseudomonas aeruginosa [6] = experiment: Antibacterial activity against Pseudomonas aeruginosa assessed as inhibition of bacterial growth
Staphylococcus aureus [7] = experiment: Antibacterial activity against methicillin resistant Staphylococcus aureus N315 assessed as inhibition of bacterial growth
Acinetobacter baumannii = experiment: Antibacterial activity against Acinetobacter baumannii assessed as inhibition of bacterial growth
Escherichia coli [8] = experiment: Antibacterial activity against Escherichia coli assessed as inhibition of bacterial growth

Row | Structure (SMILES) | MIC (Klebsiella pneumoniae) [µg/mL] | MIC (Staphylococcus aureus [1]) [µg/mL] | MIC (Escherichia coli [2]) [µg/mL] | MIC (Pseudomonas aeruginosa [3]) [µg/mL] | MIC (Staphylococcus aureus [4]) [µg/mL] | MIC (Staphylococcus aureus [5]) [µg/mL] | MIC (Enterococcus faecalis) [µg/mL] | MIC (Pseudomonas aeruginosa [6]) [µg/mL] | MIC (Staphylococcus aureus [7]) [µg/mL] | MIC (Acinetobacter baumannii) [µg/mL] | MIC (Escherichia coli [8]) [µg/mL]
1 | Cc1cc(=O)oc2cc(/N=C3/S/C(=C\c4ccc(C(F)(F)F)cc4)C(=O)N3CCO)ccc12 | 128 (≈ 270 µM) | 256 (≈ 540 µM) | 256 (≈ 540 µM) | 256 (≈ 540 µM) | 64 (≈ 135 µM) | 128 (≈ 270 µM) | 256 (≈ 540 µM) | 32 (≈ 67.4 µM) | 256 (≈ 540 µM) | 32 (≈ 67.4 µM) | 128 (≈ 270 µM)
2 | Cc1cc(=O)oc2cc(/N=C3/S/C(=C\c4nccs4)C(=O)N3CCO)ccc12 | 2 (≈ 4.84 µM) | 64 (≈ 155 µM) | 256 (≈ 619 µM) | 128 (≈ 310 µM) | 1 (≈ 2.42 µM) | 16 (≈ 38.7 µM) | 4 (≈ 9.67 µM) | 128 (≈ 310 µM) | 64 (≈ 155 µM) | 1 (≈ 2.42 µM) | 128 (≈ 310 µM)
3 | Cc1cc(=O)oc2cc(/N=C3/S/C(=C\c4ccc([N+](=O)[O-])cc4)C(=O)N3CCO)ccc12 | 64 (≈ 142 µM) | 64 (≈ 142 µM) | 64 (≈ 142 µM) | 128 (≈ 284 µM) | 128 (≈ 284 µM) | 64 (≈ 142 µM) | 32 (≈ 70.9 µM) | 64 (≈ 142 µM) | 32 (≈ 70.9 µM) | 32 (≈ 70.9 µM) | 128 (≈ 284 µM)
4 | Cc1ccc(/C=C2\S/C(=N/c3ccc4c(C)cc(=O)oc4c3)N(CCO)C2=O)c(C)c1 | 128 (≈ 295 µM) | 64 (≈ 147 µM) | 128 (≈ 295 µM) | 256 (≈ 589 µM) | 64 (≈ 147 µM) | 64 (≈ 147 µM) | 128 (≈ 295 µM) | 16 (≈ 36.8 µM) | 128 (≈ 295 µM) | 1 (≈ 2.3 µM) | 64 (≈ 147 µM)
5 | Cc1cc(=O)oc2cc(/N=C3/S/C(=C\c4ccc(O)c(Cl)c4)C(=O)N3CCO)ccc12 | 32 (≈ 70 µM) | 256 (≈ 560 µM) | 32 (≈ 70 µM) | 4 (≈ 8.75 µM) | 128 (≈ 280 µM) | 32 (≈ 70 µM) | 8 (≈ 17.5 µM) | 32 (≈ 70 µM) | 64 (≈ 140 µM) | 16 (≈ 35 µM) | 16 (≈ 35 µM)
6 | COc1ccc(/C=C2\S/C(=N/c3ccc4c(C)cc(=O)oc4c3)N(CCO)C2=O)cc1 | 128 (≈ 293 µM) | 0.5 (≈ 1.15 µM) | 128 (≈ 293 µM) | 128 (≈ 293 µM) | 32 (≈ 73.3 µM) | 32 (≈ 73.3 µM) | 8 (≈ 18.3 µM) | 64 (≈ 147 µM) | 4 (≈ 9.16 µM) | 8 (≈ 18.3 µM) | 32 (≈ 73.3 µM)
7 | CCn1cc(/C=C2\S/C(=N/c3ccc4c(C)cc(=O)oc4c3)N(CCO)C2=O)c2ccccc21 | 64 (≈ 135 µM) | 128 (≈ 270 µM) | 128 (≈ 270 µM) | 32 (≈ 67.6 µM) | 64 (≈ 135 µM) | 128 (≈ 270 µM) | 128 (≈ 270 µM) | 64 (≈ 135 µM) | 128 (≈ 270 µM) | 64 (≈ 135 µM) | 64 (≈ 135 µM)
8 | Cc1cc(=O)oc2cc(/N=C3/S/C(=C\c4cccc(Cl)c4)C(=O)N3CCO)ccc12 | 32 (≈ 72.6 µM) | 32 (≈ 72.6 µM) | 64 (≈ 145 µM) | 1 (≈ 2.27 µM) | 8 (≈ 18.1 µM) | 32 (≈ 72.6 µM) | 32 (≈ 72.6 µM) | 2 (≈ 4.54 µM) | 8 (≈ 18.1 µM) | 4 (≈ 9.07 µM) | 32 (≈ 72.6 µM)
9 | Cc1cc(=O)oc2cc(/N=C3\NC(=O)CS3)ccc12 | 4 (≈ 14.6 µM) | 256 (≈ 933 µM) | 128 (≈ 467 µM) | 128 (≈ 467 µM) | 64 (≈ 233 µM) | 32 (≈ 117 µM) | 256 (≈ 933 µM) | 64 (≈ 233 µM) | 256 (≈ 933 µM) | 256 (≈ 933 µM) | 16 (≈ 58.3 µM)
10 | Cc1ccc(/C=C2\S/C(=N/c3ccc4c(C)cc(=O)oc4c3)N(CCO)C2=O)o1 | 32 (≈ 78 µM) | 128 (≈ 312 µM) | 64 (≈ 156 µM) | 16 (≈ 39 µM) | 256 (≈ 624 µM) | 128 (≈ 312 µM) | 64 (≈ 156 µM) | 16 (≈ 39 µM) | 8 (≈ 19.5 µM) | 8 (≈ 19.5 µM) | 16 (≈ 39 µM)
11 | CCCCc1nc(Cl)c(/C=C2\S/C(=N/c3ccc4c(C)cc(=O)oc4c3)N(CCO)C2=O)[nH]1 | 64 (≈ 131 µM) | 64 (≈ 131 µM) | 64 (≈ 131 µM) | 256 (≈ 526 µM) | 128 (≈ 263 µM) | 8 (≈ 16.4 µM) | 128 (≈ 263 µM) | 256 (≈ 526 µM) | 128 (≈ 263 µM) | 64 (≈ 131 µM) | 32 (≈ 65.7 µM)
